Converted amounts (≈) assume the structure as drawn. Where only a bound is given, the exact number is not on record here.

One test deals with HT-29. As to the kind of experiment: Cytotoxicity against human HT29 colon tumor cells. It counts as functional, cell-based.
The subject of the next test is A549. Description: Cytotoxicity against human A549 lung tumor cells. It counts as functional, cell-based.

What is called IC50 is the point on the concentration scale where inhibition reaches its midpoint. A higher IC50 goes with weaker potency. With `CC(C)[C@]12O[C@H]1[C@@H]1O[C@]13[C@]1(O[C@H]1C[C@H]1C4=C(CC[C@@]13C)C(=O)OC4)[C@H]2OC(=S)n1ccnc1`, the IC50 came out at 0.88 µg/mL (≈ 1.87 µM) in the test on HT-29 and 5 µg/mL (≈ 10.6 µM) in the test with A549. On to `CC(C)[C@]12O[C@H]1[C@]13O[C@H]1C[C@H]1C4=C(CC[C@]1(C)[C@@]31O[C@H]1C2=O)C(=O)OC4`, for which the IC50 with HT-29 came out at 0.7 µg/mL (≈ 1.95 µM); in the test on A549, 0.85 µg/mL (≈ 2.37 µM). Turning to `CC(C)C1=C[C@]23O[C@H]2C[C@H]2C4=C(CC[C@]2(C)[C@@]32O[C@H]2C1=O)C(=O)OC4`, the IC50 in the test on HT-29 stood at 0.67 µg/mL (≈ 1.96 µM); with A549, 1.2 µg/mL (≈ 3.5 µM). Regarding `CC(C)[C@]12O[C@H]1[C@]13O[C@H]1C[C@H]1C4=C(CC[C@]1(C)[C@@]31O[C@H]1[C@@H]2O)C(=O)OC4`, the half-maximal inhibitory concentration (IC50) in the test on HT-29 came out at 0.15 µg/mL (≈ 0.416 µM); in the test on A549 it was 0.27 µg/mL (≈ 0.749 µM). `CC(C)[C@]12O[C@H]1[C@]13O[C@H]1C[C@H]1C4=C(CC[C@]1(C)[C@@]31O[C@H]1[C@H]2O)C(=O)OC4`: the IC50 in the test on HT-29 and with A549 was above 10 µg/mL each time.

`CC(C)[C@]12O[C@H]1[C@@H]1O[C@]13[C@]1(O[C@H]1C[C@H]1C4=C(CC[C@@]13C)C(=O)OC4)[C@@H]2OC(=S)n1ccnc1`: the figures for the IC50 in the test on HT-29 and in the test on A549 were 0.004 µg/mL (≈ 0.0085 µM) and 0.024 µg/mL (≈ 0.051 µM), respectively.

Compound `CC(C)[C@]12O[C@H]1[C@@H]1O[C@@]13[C@@]1(C)CCC4=C(COC4=O)[C@@H]1C[C@@H]1O[C@@]13C2=O` [TRIPTONIDE] had an IC50 with HT-29 below 0.00046 µg/mL.

These data come from ChEMBL document CHEMBL1146928, “Semisynthesis of C-ring modified triptolide analogues and their cytotoxic activities” (Bioorg Med Chem Lett, 2006).
